Experimental data as given in Sander's compilation of Henry's law constants (doi:10.1093/jnci/56.6.1125).

assay: Henry solubility constant Hcp at 310 K (mol/(m3 Pa)); conditions: reference: Mirvish et al. (1976)

| Structure (SMILES) | Henry solubility constant Hcp at 310 K |
| --- | --- |
| O=NN1CCOCC1 [4-nitrosomorpholine] | 390 |
| CC(C)N(N=O)C(C)C [N-(1-methylethyl)-N-nitroso-2-propanamine] | 1.2 |
| CCCCN(CCCC)N=O [N-nitrosodi-N-butylamine] | 0.72 |
| CCCCN(C)N=O [methylbutylnitrosamine] | 1.7 |
| CCCCCN(C)N=O [methylpentylnitrosamine] | 2 |
| CCOC(=O)N(C)N=O [N-nitroso-N-methylurethane] | 0.39 |
| CC1CN(N=O)CC(C)N1N=O (stereo not given) [2,6-dimethyldinitrosopiperazine] | > 190 |
| O=NN1CCCCCC1 [nitrosohexamethyleneimine] | 43 |
| CCCN(CCC)N=O [N-nitrosodipropylamine] | 1.8 |
| CN(C)N=O [N-nitrosodimethylamine] | 5.2 |
| CCCCN(CC)N=O [ethylbutylnitrosamine] | 0.99 |
| CN(N=O)C(N)=O [methylnitrosourea] | > 190 |
| CC(=O)N(C)N=O [methylnitrosoacetamide] | 0.086 |
| CCN(CC)N=O [N-nitrosodiethylamine] | 1.4 |
| CC1CN(N=O)CC(C)O1 (stereo not given) [2,6-dimethylnitrosomorpholine] | 35 |
| O=NN1CCC1 [nitrosoazetidine] | > 190 |
| O=NN1CCN(N=O)CC1 [dinitrosopiperazine] | > 190 |
| CCN(C#N)N=O [ethylnitrosocyanamide] | 0.26 |
| CN(Cc1ccccc1)N=O [N-methyl-N-nitrosobenzenemethanamine] | 0.79 |
| O=NN1CCCCC1 [N-nitrosopiperidine] | 11 |
